Test results as given in patent publication US20230285340A1, “NEPRILYSIN INHIBITORS” (THERAVANCE BIOPHARMA R&D IP, LLC, priority 2011, published 2023).

Biological target: human NEP (Homo sapiens (Human), UniProt P08473)
Test: In vitro enzyme inhibition assay at human NEP (Assay 1)
Format: biochemical

Compound	pKi (reported as ranges)	pKi (comparative examples, exact values)
C[C@@](CO)(C[C@@H](Cc1ccc(-c2ccccc2F)cc1)NC(=O)C(=O)O)C(=O)O [Example 11-1, (2S,4R)-5-(2′-Fluorobiphenyl-4-yl)-2-hydroxymethyl-2-methyl-4-(oxalylamino)pentanoic acid]	8.0-8.9	–
Cc1ccc(Cl)cc1-c1ccc(C[C@H](C[C@@H](O)C(=O)O)NC(=O)C(=O)O)cc1 [Example 5-1, (2R,4R)-5-(5′-Chloro-2′-methylbiphenyl-4-yl)-2-hydroxy-4-(oxalylamino)-pentanoic acid]	≥9	–
C[C@@](CO)(C[C@@H](Cc1ccc(-c2ccc(F)cc2)cc1)NC(=O)C(=O)O)C(=O)O [Example 11-3, (2S,4R)-5-(4′-Fluorobiphenyl-4-yl)-2-hydroxymethyl-2-methyl-4-(oxalylamino)pentanoic acid]	7.0-7.9	–
C[C@@](CO)(C[C@@H](Cc1ccc(-c2cc(Cl)ccc2F)cc1)NC(=O)C(=O)O)C(=O)O [Example 11-2, (2S,4R)-5-(5′-Chloro-2′-fluorobiphenyl-4-yl)-2-hydroxymethyl-2-methyl-4-(oxalyl-amino)pentanoic acid]	≥9	–
C[C@H](C[C@@H](Cc1ccc(-c2ccccc2)cc1)NC(=O)C(=O)O)C(=O)O [Comparative Compound A, (2R,4S)-5-Biphenyl-4-yl-2-methyl-4-(oxalyl-amino)-pentanoic Acid, reference compound]	–	8.2
O=C(O)C(=O)N[C@H](Cc1ccc(-c2cccc(Cl)c2)cc1Cl)C[C@@H](O)C(=O)O [Example 5-9, (2R,4R)-5-(3,3′-Dichlorobiphenyl-4-yl)-2-hydroxy-4-(oxalylamino)pentanoic acid]	≥9	–
CCOC(=O)[C@H](O)C[C@@H](Cc1ccc(-c2cccc(Cl)c2)cc1Cl)NC(=O)C(=O)O [Example 5-17, (2R,4R)-5-(3,3′-Dichlorobiphenyl-4-yl)-2-hydroxy-4-(oxalylamino)pentanoic acid ethyl ester]	≥9	–
CCOC(=O)C(=O)N[C@H](Cc1ccc(-c2cc(Cl)ccc2F)cc1)C[C@@H](O)C(=O)O [Example 5-14, (2R,4R)-5-(5′-Chloro-2′-fluorobiphenyl-4-yl)-4-(ethoxyoxalylamino)-2-hydroxy-pentanoic acid]	≥9	–
O=C(O)C(=O)NN(Cc1ccc(-c2cc(Cl)ccc2F)cc1Cl)C[C@@H](O)C(=O)O [Example 5-13, (R)-3-[N-(3,5′-Dichloro-2′-fluorobiphenyl-4-ylmethyl)-N′-oxalyl-hydrazino]-2-hydroxypropionic acid]	≥9	–
CC(C)COC(=O)C(=O)N[C@H](Cc1ccc(-c2cccc(Cl)c2)cc1)C[C@@](C)(CO)C(=O)O [Example 11-4, (2S,4R)-5-(3′-Chlorobiphenyl-4-yl)-2-hydroxymethyl-4-(isobutoxyoxalyl-amino)-2-methylpentanoic acid]	8.0-8.9	–
CC(C)OC(=O)C(=O)N[C@H](Cc1ccc(-c2cc(Cl)ccc2F)cc1)C[C@@H](O)C(=O)O [Example 5-15, (2R,4R)-5-(5′-Chloro-2′-fluorobiphenyl-4-yl)-2-hydroxy-4-(isopropoxyoxalyl-amino)-pentanoic acid]	≥9	–
O=C(O)C(=O)N[C@H](Cc1ccc(-c2cc(Cl)ccc2F)cc1)C[C@@H](O)C(=O)O [Example 5-5, (2R,4R)-5-(5′-Chloro-2′-fluorobiphenyl-4-yl)-2-hydroxy-4-(oxalylamino)pentanoic acid]	≥9	–
